The text below walks through data of patent publication US10213451B2, “Methods and compounds for modulating the secretion or expression of adhesion proteins or angiopoietins of cells” (PACIFIC ARROW LIMITED, priority 2004, dated 2019).

For one test, the system named is (Mouth) KB cells. The test can be described thus: MTT assay KB. Format: cell-based. The settings on record: Homo sapiens. A general note: Tetrazolium dyes change colour on reduction, which living cells bring about.
Test [1] deals with swelling of the recto-anus of rats. The test can be described thus: Croton oil induced swelling of the recto-anus (hemorrhoids model). Format: in vivo, SD rats. The procedure: SD rats, male, age-matched 7-8 weeks old weighing 163±18 g were in the experiment. The tested animals were allowed to acclimate for a week.
A cotton swab with a diameter of 4 mm soaked with 0.16 mL of inducer (deionized water:pyridine:ethyl ether:6% croton oil/ethyl ether, 1:4:5:10) was applied to the rat's anus for 12 seconds. The final concentration of croton oil was 3%. The edema developed linearly until 7-8 hours after application and the severity of the edema was sustained for more than 24 hours. Twenty-four hours later, recto-anus tissue (approx. 10 mm long) was isolated after the rats were euthanized. The weights of rat body and recto-anus were measured. The recto-anus coefficient (RAC) was calculated using the formula: weight of recto-anus (mg)/body weight (g). RAC=weight of recto-anus (mg)/body weight (g)×100%
The rates were randomly divided into 5 groups: control, positive control and 3 test groups, and each group had 8 rats. The dose for 3 groups of rats are 10, 20 and 40 mg/kg. The dose of 0.5% CMC-Na for control group is the same as the each test group. The tested drug was fed into the stomach on the morning, once a day before the animal modeling for 5 days. The anus suppository was applied to positive control once after the animal modeling (1 mL/100 g). The weights of recto-anus and RACs were calculated, compared with the controls and subject to a student t-test.

Converted amounts (≈) assume the structure as drawn.

As a reminder, the IC50 is the concentration that gives 50% inhibition. Low readings indicate higher potency, high ones lower potency. `C/C=C(/C)C(=O)O[C@H]1[C@H](OC(=O)/C(C)=C\C)[C@@]2(CO)C(CC1(C)C)C1=CCC3[C@@]4(C)CC[C@H](O[C@@H]5OC(C(=O)O)[C@@H](O)C(O[C@@H]6O[C@@H](CO)C(O)C6O)C5O[C@@H]5OC(CO)[C@H](O)C(O)C5O)C(C)(C)C4CC[C@@]3(C)[C@]1(C)[C@@H](O)[C@H]2O` (stereo partly drawn) [Xanifolia-Y, 3-O-[β-D-galactopyranosyl (1→2)]-α-L-arabinofuranosy (1→3)-β-D-glucuronopyranosyl-21,22-O-diangeloyl-3β, 15α, 16α, 21β, 22α, 28-hexahydroxyolean-12-ene] came in with a half-maximal inhibitory concentration (IC50) in the test with (Mouth) KB cells of 6 µg/mL (≈ 5.26 µM). In addition, the RAC is on record as 1.83 ± 0.36 in test [1] (10 mg/Kg), 1.61 ± 0.24 in test [1] (20 mg/Kg) and 1.51 ± 0.23 in test [1] (40 mg/Kg). Also, the Reduction rate % in test [1] (10 mg/Kg) amounted to 21.5%; in test [1] (20 mg/Kg) it was 30.9%; in test [1] (40 mg/Kg), 35.1%. In addition, the figures for the “Weight of recto-anus” value in test [1] (10 mg/Kg fed into the stomach once a day for 5 days), in test [1] (20 mg/Kg) and in test [1] (40 mg/Kg) were 4.68 ± 0.77 g, 4.28 ± 0.60 g and 3.97 ± 0.65 g, respectively.
